Measured values published in US10173991B2, “Sulfone amide linked benzothiazole inhibitors of endothelial lipase” (BRISTOL-MYERS SQUIBB COMPANY, priority 2014, dated 2019).

Molecular target: Endothelial lipase (EL) (Homo sapiens (Human), UniProt Q9Y5X9)
Test: Endothelial lipase (EL) enzymatic assay with fluorescent substrate A10070 in DMPG vesicles
Format: biochemical
Method: Endothelial lipase (EL) and hepatic lipase (HL) activities were measured using a fluorescent substrate, A10070, (Invitrogen, CA) doped into an artificial vesicle containing DMPG (Avanti Polar Lipids) as the excipient. Vesicles were prepared by combining 571 μL of 29 mM DMPG in a 1:1 mixture of MeOH and CHCl3 with 2000 μL of 1 mM A10070 in a 1:1 mixture of MeOH and CHCl3. The mixture was dried under nitrogen in multiple vials then resuspended in 20 mL total volume of 50 mM HEPES pH 8.0 buffer containing 50 mM NaCl and 0.2 mM EDTA. The sample was allowed to sit at room temperature for 15 min and then was sonicated 3×4 mins on ice with a Branson Sonicator using duty cycle 1. This preparation provides vesicles with a mole fraction of 0.11 for the FRET substrate.
The enzymatic assay was measured using 384-well white Optiplates. Each well contained 20 μL of assay buffer (50 mM HEPES pH 8.0, 50 mM NaCl and 1 mM CaCl2) and 0.25 μL of a DMSO solution containing a compound of interest. EL or HL (10 μL) was added and allowed to incubate with the compound for 30 min at 37° C. The source of EL was conditioned media obtained from HT-1080 cells that were transformed using RAGE technology (Athersys) to overexpress endogenous EL, and HL was partially purified from conditioned media obtained from COS cells overexpressing HL. The reaction was started by the addition of 10 μL of a 1:10 dilution of vesicles. The final total reaction volume was […]. The reaction rates were measured on a Gemini plate reader with an excitation wavelength of 490 nm and an emission wavelength of 530 nm. Readings were taken over a period of 60 minutes, and the slope between 300 and 900 secs of the readout was used to calculate the rate of the reaction.

Chain of Endothelial lipase (EL) (Q9Y5X9 21-500): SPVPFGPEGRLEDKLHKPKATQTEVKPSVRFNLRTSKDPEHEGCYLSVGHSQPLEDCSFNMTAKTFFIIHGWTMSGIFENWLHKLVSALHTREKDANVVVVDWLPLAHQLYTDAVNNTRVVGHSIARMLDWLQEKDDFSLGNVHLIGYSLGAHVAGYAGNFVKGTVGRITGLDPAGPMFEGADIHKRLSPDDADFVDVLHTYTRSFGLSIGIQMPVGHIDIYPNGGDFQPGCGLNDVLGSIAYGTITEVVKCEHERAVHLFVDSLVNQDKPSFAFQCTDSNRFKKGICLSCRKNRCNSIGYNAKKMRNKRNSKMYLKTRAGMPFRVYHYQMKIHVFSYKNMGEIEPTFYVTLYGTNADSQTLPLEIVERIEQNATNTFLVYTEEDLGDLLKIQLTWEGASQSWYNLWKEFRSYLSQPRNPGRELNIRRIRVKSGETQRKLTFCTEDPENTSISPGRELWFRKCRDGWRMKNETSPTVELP

IC50 [nM]	SMILES
27	COCCS(=O)(=O)C(C(=O)NCC(=O)NC1CC1)c1nc2cc(F)c(-c3ccc(F)nc3)cc2s1 (centres unmarked) [Example 171, N-[(cyclopropyl-carbamoyl)methyl]-2-[5-fluoro-6-(6-fluoropyridin-3-yl)-1,3-benzothiazol-2-yl]-2-(2-methoxyethane-sulfonyl) acetamide]
157	CC(C)OCCNC(=O)CNC(=O)C(c1nc2cc(F)cc(-c3cnc(C4CC4)nc3)c2s1)S(=O)(=O)c1ccc(F)cc1 (centres unmarked) [Example 466, 2-[7-(2-cyclopropyl-pyrimidin-5-yl)-5-fluoro-1,3-benzothiazol-2-yl]-2-(4-fluorobenzene-sulfonyl)-N-({[2-(propan-2-yloxy)ethyl]carbamoyl}methyl)acetamide]
45	Cc1cc(-c2cc3nc(C(C(=O)NCC(=O)NC4CC4)S(=O)(=O)C(C)C)sc3cc2F)cnn1 (centres unmarked) [Example 271, N-[(cyclopropyl-carbamoyl)methyl]-2-[6-fluoro-5-(6-methylpyridazin-4-yl)-1,3-benzothiazol-2-yl]-2-(propane-2-sulfonyl)acetamide]
20	COCCS(=O)(=O)C(C(=O)NCC(=O)NC1CC1)c1nc2cc(C(F)(F)F)c(-c3ccc(C(=O)N4CCOCC4)cc3)cc2s1 (centres unmarked) [Example 166, N-[(cyclopropyl-carbamoyl)methyl]-2-(2-methoxyethane-sulfonyl)-2-{6-[4-(morpholine-4-arbonyl)phenyl]-5-(trifluoromethyl)-1,3-benzothiazol-2-yl}acetamide]
3	COCCS(=O)(=O)C(C(=O)NCC(=O)NC1CC1)c1nc2ccc(-c3ccc(C(=O)NC(C)(C)COC)cc3)cc2s1 (centres unmarked) [Example 561, 4-[2-({[(cyclopropyl-carbamoyl)methyl]carbamoyl}(2-methoxyethane-sulfonyl)methyl)-1,3-benzothiazol-6-yl]-N-(1-methoxy-2-methylpropan-2-yl)benzamide]
3	Cc1nn(-c2ccc(-c3cc4sc(C(C(=O)NCC(=O)NC5CC5)S(=O)(=O)CCC(F)(F)F)nc4cc3F)cc2)c(N)c1C#N (centres unmarked) [Example 587, 2-{6-[4-(5-amino-4-cyano-3-methyl-1H-pyrazol-1-yl)phenyl]-5-fluoro-1,3-benzothiazol-2-yl}-N-[(cyclopropyl-carbamoyl)methyl]-2-(3,3,3-trifluoropropane-sulfonyl)acetamide]
7	O=C(CNC(=O)C(c1nc2c(F)cc(-c3ccc4[nH]c(=O)ccc4c3)cc2s1)S(=O)(=O)c1ccc(F)cc1)NC1CC1 (centres unmarked) [Example 475, N-[(cyclopropyl-carbamoyl)methyl]-2-[4-fluoro-6-(2-oxo-1,2-dihydroquinolin-6-yl)-1,3-benzothiazol-2-yl]-2-(4-fluorobenzene-sulfonyl)acetamide]
15	COCCS(=O)(=O)C(C(=O)NCC(=O)NC1CC1)c1nc2ccc(-c3ccncc3Cl)cc2s1 (centres unmarked) [Example 288, 2-[6-(3-chloropyridin-4-yl)-1,3-benzothiazol-2-yl]-N-[(cyclopropyl-carbamoyl)methyl]-2-(2-methoxyethane-sulfonyl)acetamide]
4	COC(=O)Nc1ccc(-c2cc3sc(C(C(=O)NCC(=O)NC4CC4)S(C)(=O)=O)nc3cc2F)c(C)c1 (centres unmarked) [Example 34, methyl N-{4-[2-({[(cyclopropyl-carbamoyl)methyl]carbamoyl} (methanesulfonyl)methyl)-5-fluoro-1,3-benzothiazol-6-yl]-3-methylphenyl} carbamate]
2	COCCOC(=O)Nc1ccc(-c2cc3sc(C(C(=O)NCC(=O)NC4CC4)S(=O)(=O)C4CC4)nc3cc2F)cc1 (centres unmarked) [Example 536, 2-methoxyethyl N-(4-{2-[(cyclopropane-sulfonyl) ({[(cyclopropyl-carbamoyl)methyl]carbamoyl})methyl]-5-fluoro-1,3-benzothiazol-6-yl}phenyl) carbamate]
11	Cc1cc(-c2cc3sc(C(C(=O)NCC(=O)NC4CC4)S(C)(=O)=O)nc3cc2F)ccn1 (centres unmarked) [Example 250, N-[(cyclopropyl-carbamoyl)methyl]-2-[5-fluoro-6-(2-methylpyridin-4-yl)-1,3-benzothiazol-2-yl]-2-methanesulfonyl-acetamide]
